Experimental data from patent publication US8354400B2, “Benzoxazole compounds and methods of use” (Eisai R&D Co., Ltd., priority 2008, dated 2013).
Where two headings read alike, the source gives them in different places.

Key:
Type in all cases: cell-based
[1] = target: T1, human TLR7 (Homo sapiens, UniProt Q9NYK1); test: HEK/TLR7 activation assay (R848 stimulation); settings: HEK cells transfected with human TLR7
T1 construct: expressed in transfected cells; host or cells: HEK cell line (HEK293, as in the primary assay)
T1 sequence (Q9NYK1 27-1049): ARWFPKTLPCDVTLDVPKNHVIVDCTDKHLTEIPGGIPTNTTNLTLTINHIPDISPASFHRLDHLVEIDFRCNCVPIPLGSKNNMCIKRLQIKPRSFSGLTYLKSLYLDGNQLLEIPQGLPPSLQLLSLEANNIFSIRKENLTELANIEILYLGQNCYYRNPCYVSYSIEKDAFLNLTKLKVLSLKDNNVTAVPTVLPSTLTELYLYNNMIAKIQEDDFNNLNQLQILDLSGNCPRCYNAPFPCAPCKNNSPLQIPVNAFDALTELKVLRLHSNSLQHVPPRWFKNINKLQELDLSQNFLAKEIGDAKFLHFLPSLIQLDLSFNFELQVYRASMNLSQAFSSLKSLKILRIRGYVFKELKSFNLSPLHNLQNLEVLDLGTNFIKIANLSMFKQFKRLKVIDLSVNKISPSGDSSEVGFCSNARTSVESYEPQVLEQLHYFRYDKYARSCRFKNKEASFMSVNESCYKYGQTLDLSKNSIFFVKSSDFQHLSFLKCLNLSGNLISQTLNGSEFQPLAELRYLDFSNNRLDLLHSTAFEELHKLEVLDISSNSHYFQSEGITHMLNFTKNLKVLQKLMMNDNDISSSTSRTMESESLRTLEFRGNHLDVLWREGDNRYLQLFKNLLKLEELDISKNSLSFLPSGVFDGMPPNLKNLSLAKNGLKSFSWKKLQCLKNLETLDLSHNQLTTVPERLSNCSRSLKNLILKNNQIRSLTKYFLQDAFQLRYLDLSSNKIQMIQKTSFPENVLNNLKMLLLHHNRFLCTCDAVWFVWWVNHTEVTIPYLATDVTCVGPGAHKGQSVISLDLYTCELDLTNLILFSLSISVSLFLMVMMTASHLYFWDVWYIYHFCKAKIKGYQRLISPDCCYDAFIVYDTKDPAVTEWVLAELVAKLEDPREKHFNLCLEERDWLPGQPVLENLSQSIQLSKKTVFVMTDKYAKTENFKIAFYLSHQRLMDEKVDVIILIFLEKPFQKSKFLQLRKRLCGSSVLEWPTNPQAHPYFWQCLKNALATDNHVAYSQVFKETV
Protocol: (1) HEK/TLR7Activation Assay: The same compounds were tested in the same way as the primary assay with the following differences. The plasmid used to transfect the HEK cell line encoded for human TLR7 instead of TLR9, and R848 was used to stimulate the cells instead of Oligo CpG 2006.

[2] = target: T2, human TLR9 (Homo sapiens, UniProt Q9NR96); test: Primary assay: HEK/TLR9 activation (NF-kB luciferase reporter, Oligo CpG 2006 stimulation)
T2 construct: expressed in transfected cells; host or cells: HEK293 (ATCC No. CRP-1573 [sic])
T2 sequence (Q9NR96 26-1032): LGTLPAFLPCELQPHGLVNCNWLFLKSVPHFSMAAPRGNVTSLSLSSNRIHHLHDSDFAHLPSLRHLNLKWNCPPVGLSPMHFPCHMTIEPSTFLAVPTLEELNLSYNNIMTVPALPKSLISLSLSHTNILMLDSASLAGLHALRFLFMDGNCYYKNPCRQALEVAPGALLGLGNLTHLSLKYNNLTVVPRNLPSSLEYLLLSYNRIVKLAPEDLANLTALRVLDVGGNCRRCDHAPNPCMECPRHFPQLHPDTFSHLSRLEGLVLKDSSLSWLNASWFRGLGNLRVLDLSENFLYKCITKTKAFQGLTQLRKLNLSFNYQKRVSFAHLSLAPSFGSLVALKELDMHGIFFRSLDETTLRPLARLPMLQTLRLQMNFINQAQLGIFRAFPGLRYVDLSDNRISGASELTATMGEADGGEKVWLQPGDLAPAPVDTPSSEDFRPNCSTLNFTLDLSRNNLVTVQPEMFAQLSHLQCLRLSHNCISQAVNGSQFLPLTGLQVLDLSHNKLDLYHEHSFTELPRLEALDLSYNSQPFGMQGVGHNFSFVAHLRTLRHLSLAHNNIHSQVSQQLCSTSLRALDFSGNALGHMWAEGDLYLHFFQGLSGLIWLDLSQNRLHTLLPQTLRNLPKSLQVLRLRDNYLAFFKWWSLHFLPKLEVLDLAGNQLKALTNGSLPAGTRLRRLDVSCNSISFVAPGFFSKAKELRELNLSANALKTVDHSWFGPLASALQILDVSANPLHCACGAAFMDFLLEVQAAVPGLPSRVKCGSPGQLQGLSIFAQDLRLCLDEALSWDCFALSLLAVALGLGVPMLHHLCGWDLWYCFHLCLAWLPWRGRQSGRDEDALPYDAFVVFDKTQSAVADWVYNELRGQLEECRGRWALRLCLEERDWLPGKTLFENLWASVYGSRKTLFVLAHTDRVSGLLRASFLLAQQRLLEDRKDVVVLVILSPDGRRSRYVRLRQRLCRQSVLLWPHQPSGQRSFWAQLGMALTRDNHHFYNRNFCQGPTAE
Excerpt: A. Primary Assay. The primary assay involved transfecting human embryonic kidney epithelial (HEK) cells with TLR9. More specifically, HEK293 […] cells (ATCC No. CRP-1573, American Type Culture Collection, Manassas, Va.) were transfected with pcDNA3.1D/V5-His-TOPO® plasmid (Invitrogen, Carlsbad, Calif.) encoding human TLR9 (directly inserted as a Tag polymerase-amplified PCR product) and firefly luciferase under the control of three NF-kB binding sites contained in the E-selectin-1 promoter, which was cloned into a pGL3-Enhancer Vector (Promega Corp, Madison, Wis.). Each compound was added to cells 30 min. before stimulation with Oligo CpG 2006, a synthetic phosphorothioate oligonucleotide (Hartmann et al., J Immunol. 164:1617-24 (2000)), with nucleotide sequence 5′-TCGTCGTTTTGTCGTTTTGTCGTT-3′ (SEQ ID NO:1). The cells were incubated overnight at 37° C. The luciferase substrate Steady-Glo® (Promega) was added to the wells, and luminescence was measured to determine the extent of TLR9-driven gene activation. The luminescence data was used to calculate an IC50 for each sample. The IC50 is defined as the concentration of compound that suppresses the luminescence to 50% of that observed in the absence of compound, in other words, with full stimulation.

[3] = tested on: mouse spleen IL-6 production in response to Oligo CpG 1668; test: Splenocyte CpG 1668 assay (IL-6 ELISA); settings: mouse splenocytes, Oligo CpG 1668, 72 hrs
Protocol: (2) Splenocyte CpG 1668 Assay: Some of the compounds tested in the primary assay were also assayed for suppression of mouse spleen IL-6 production in response to stimulation with Oligo CpG 1668, a synthetic phosphorothioate oligonucleotide (Krieg et al. Nature. 374:546-9 (1995)), with nucleotide sequence [NT] (SEQ ID NO:2). Each compound was added to dissociated splenocytes before addition of stimulatory oligonucleotide. Cells were stimulated in culture for 72 hrs and the supernatant was removed for ELISA analysis of IL-6 level. Here the IC50 is defined as the concentration of compound that suppresses cytokine production to 50% of that observed in the absence of compound, i.e., full stimulation.

[4] = tested on: dissociated mouse splenocytes; test: Spleen CellTiter-Glo viability assay; settings: Splenocyte, 72 hours, viability (ATP)
Protocol: (3) Spleen CT Glo Assay: To determine if compounds had adverse effects on living cells, dissociated mouse splenocytes were incubated with some of the compounds for 72 hours. At the end of the incubation Celliter-Glo™ reagent (Promega Corporation, Madison, Wis.) was added and luminescence was read per manufacturer's instructions. This reagent measures ATP as an indication of cell metabolism. Dead cells will not produce signal. IC50 is defined as the concentration of compound that suppresses viability to 50% of that observed in the absence of compound. The few compounds that measurably affected viability did so at concentrations far above those that affected cytokine release in response to TLR9 stimulation.

[5] = HEK293 transfected with human TLR9 and NF-kB luciferase, compound 30 min before Oligo CpG 2006, overnight, read-out: HEK/TLR9 IC50
[6] = read-out: IC50 in the primary HEK/TLR9 assay

| IC50 [1] [µM] | IC50 [2, 5] [µM] | IC50 [2, 6] [µM] | IC50 [3] [µM] | Compound | IC50 [4] [µM] |
| --- | --- | --- | --- | --- | --- |
| 9.05 | 0.12 |  |  | CN(C)CCCNCCCOc1ccc(-c2nc3ccc(OCCCNCCCN(C)C)cc3o2)cc1 [Compound 9] |  |
| 7.8 | 0.031 | 0.06 | 0.29 | CN(C)CCOc1ccc(-c2nc3ccc(OCCN(C)C)cc3o2)cc1 [Compound 1] |  |
| 0.35 | 0.0153 |  | 0.026 | CC(C)(CN1CCOCC1)NCCCOc1ccc(-c2nc3ccc(OCCCNC(C)(C)CN4CCOCC4)cc3o2)cc1 [Compound 10] | 9.8 |
| > 2.5 | 0.034 |  |  | CN(C)CCCCN(C)CCCOc1ccc(-c2nc3ccc(OCCCN(C)CCCCN(C)C)cc3o2)cc1 [Compound 38] |  |
| 0.58 | 0.0096 |  | 0.01 | CCN(CC)CCN(CC)CCCOc1ccc(-c2nc3ccc(OCCCN(CC)CCN(CC)CC)cc3o2)cc1 [Compound 32] | > 10 |
| 1.55 | 0.0125 |  |  | C1=CCN(CCCOc2ccc(-c3nc4ccc(OCCCN5CC=CCC5)cc4o3)cc2)CC1 [Compound 28] | > 10 |
| 2 | 0.011 |  |  | CN(C)CCCOc1cccc(-c2nc3ccc(OCCCN(C)C)cc3o2)c1 [Compound 5] |  |
| > 2.5 | 0.038 |  |  | CN(C)CCOCCN(C)CCCOc1ccc(-c2nc3ccc(OCCCN(C)CCOCCN(C)C)cc3o2)cc1 [Compound 36] |  |
| 0.78 | 0.0193 |  | 0.042 | CCCN(C)CCCOc1ccc(-c2nc3ccc(OCCCN(C)CCC)cc3o2)cc1 [Compound 29] | 10.4 |
| 1.31 | 0.0233 |  |  | COCCNCCCOc1ccc(-c2nc3ccc(OCCCNCCOC)cc3o2)cc1 [Compound 7] | > 10 |
| 8.41 | 0.0202 |  |  | O[C@H]1CC[C@H](NCCCOc2ccc(-c3nc4ccc(OCCCN[C@H]5CC[C@H](O)CC5)cc4o3)cc2)CC1 [Compound 6] |  |
| 1.4 | 0.023 |  |  | CN(C)CCCCCOc1ccc(-c2nc3ccc(OCCCCCN(C)C)cc3o2)cc1 [Compound 3] |  |
|  | 0.0182 |  | 0.048 | COC[C@@H]1CCCN1CCCOc1ccc(-c2nc3ccc(OCCCN4CCC[C@H]4COC)cc3o2)cc1 [Compound 25] | > 10 |
| 0.17 | 0.0053 |  | 0.006 | CN(C)[C@H]1CCN(CCCOc2ccc(-c3nc4ccc(OCCCN5CC[C@H](N(C)C)C5)cc4o3)cc2)C1 [Compound 17] | > 10 |
| > 2.5 | 0.03 |  |  | CN(C)CCCOCCCN(C)CCCOc1ccc(-c2nc3ccc(OCCCN(C)CCCOCCCN(C)C)cc3o2)cc1 [Compound 37] |  |
| 1.1 | 0.0276 |  |  | c1cc(N2CCN(CCCOc3ccc(-c4nc5ccc(OCCCN6CCN(c7ccncc7)CC6)cc5o4)cc3)CC2)ccn1 [Compound 19] | 10 |
| 1.23 | 0.0197 |  |  | c1ccc(CNCCCOc2ccc(-c3nc4ccc(OCCCNCc5ccccn5)cc4o3)cc2)nc1 [Compound 8] | 7.82 |
| 1.8 | 0.012 |  |  | CN(C)CCCOc1ccc2nc(-c3ccccc3OCCCN(C)C)oc2c1 [Compound 4] |  |
| 8.52 | 0.1 |  |  | CCNCCCOc1ccc(-c2nc3ccc(OCCCNCC)cc3o2)cc1 [Compound 33] |  |
| 1.24 | 0.0133 |  |  | CCN(C)CCCOc1ccc(-c2nc3ccc(OCCCN(C)CC)cc3o2)cc1 [Compound 21] | 9.58 |
| 1.4 | 0.0192 |  |  | COCCN(C)CCCOc1ccc(-c2nc3ccc(OCCCN(C)CCOC)cc3o2)cc1 [Compound 18] | 9.9 |
| 2.24 | 0.0232 |  |  | CCOCCN1CCN(CCCOc2ccc(-c3nc4ccc(OCCCN5CCN(CCOCC)CC5)cc4o3)cc2)CC1 [Compound 15] | > 10 |
| 2.69 |  | 0.16 | 1.02 | c1cc(-c2nc3ccc(OC4CCNC4)cc3o2)ccc1OC1CCNC1 (stereo not drawn) [Comparator, reference compound] |  |
| 0.6 | 0.0064 |  | 0.008 | c1cc(-c2nc3ccc(OCCCN4CCC[C@H]4CN4CCCC4)cc3o2)ccc1OCCCN1CCC[C@H]1CN1CCCC1 [Compound 24] | > 10 |
